{"source": "paper PMC11882969", "about": "(Nature Communications, 2025)", "key": {"[1]": {"target": "hCB1 (Homo sapiens, UniProt P21554)", "sequence (P21554 whole entry)": "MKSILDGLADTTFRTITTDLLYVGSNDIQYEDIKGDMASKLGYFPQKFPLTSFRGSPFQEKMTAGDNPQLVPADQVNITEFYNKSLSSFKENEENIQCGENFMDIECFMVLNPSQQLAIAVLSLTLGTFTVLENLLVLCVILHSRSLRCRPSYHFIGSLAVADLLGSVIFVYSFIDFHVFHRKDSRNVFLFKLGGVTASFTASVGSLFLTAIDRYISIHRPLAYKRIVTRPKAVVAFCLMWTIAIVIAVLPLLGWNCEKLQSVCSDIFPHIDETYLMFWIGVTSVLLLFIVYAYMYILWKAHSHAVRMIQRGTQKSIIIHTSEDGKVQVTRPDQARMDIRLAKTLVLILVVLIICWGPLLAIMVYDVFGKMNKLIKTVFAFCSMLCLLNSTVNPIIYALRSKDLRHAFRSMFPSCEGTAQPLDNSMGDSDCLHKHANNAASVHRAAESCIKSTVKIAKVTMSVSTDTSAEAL", "assay": "bioSensAll ebBRET signaling profiling, hCB1", "type": "cell-based", "set-up": "host or cells: HEK293SL cells, transient PEI transfection", "conditions": "for GoB hCB1 / Gi1 hCB1: single replicate values, FigS6a; for EC50: read-out: EC50 [95% CI]; for Emax: normalized to CP-55,940"}, "[2]": {"target": "T1, CB1 (rCB1) (Rattus norvegicus, UniProt P20272)", "T1 sequence (P20272 whole entry)": "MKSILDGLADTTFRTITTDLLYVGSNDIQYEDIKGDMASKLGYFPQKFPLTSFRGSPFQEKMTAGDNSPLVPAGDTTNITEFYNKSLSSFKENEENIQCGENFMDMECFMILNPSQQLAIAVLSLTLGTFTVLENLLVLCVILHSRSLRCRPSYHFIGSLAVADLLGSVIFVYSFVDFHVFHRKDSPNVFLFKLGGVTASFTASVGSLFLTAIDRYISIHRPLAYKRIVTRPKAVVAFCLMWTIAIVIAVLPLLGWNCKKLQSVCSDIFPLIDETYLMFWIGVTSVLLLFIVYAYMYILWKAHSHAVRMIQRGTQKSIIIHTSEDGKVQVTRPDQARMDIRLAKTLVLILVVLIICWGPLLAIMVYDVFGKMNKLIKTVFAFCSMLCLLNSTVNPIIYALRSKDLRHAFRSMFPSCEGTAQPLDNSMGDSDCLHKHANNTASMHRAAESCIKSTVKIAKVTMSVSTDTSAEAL", "assay": "Radioligand competition binding, [3H]-CP-55,940, rat brain membranes"}, "[3]": {"target": "T1, CB1 (rCB1)", "assay": "Single-point radioligand displacement screen", "type": "binding"}, "[4]": {"target": "AmpC β-lactamase (Escherichia coli, UniProt P00811)", "sequence (P00811 20-377)": "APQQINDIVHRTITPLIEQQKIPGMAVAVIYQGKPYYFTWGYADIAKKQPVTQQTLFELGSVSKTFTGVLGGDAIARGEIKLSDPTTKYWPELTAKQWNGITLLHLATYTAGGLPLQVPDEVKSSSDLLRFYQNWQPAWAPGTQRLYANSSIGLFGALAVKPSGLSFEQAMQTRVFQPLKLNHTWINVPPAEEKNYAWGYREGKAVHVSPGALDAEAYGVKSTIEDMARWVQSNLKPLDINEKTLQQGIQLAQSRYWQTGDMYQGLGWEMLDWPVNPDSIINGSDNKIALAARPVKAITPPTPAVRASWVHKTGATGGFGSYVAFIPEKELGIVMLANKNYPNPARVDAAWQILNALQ", "type": "biochemical", "conditions": "Rep 1-3 mean; sheet FigureS2c", "description": "Enzyme inhibition assays to test for colloidal inhibition were performed at room temperature using CLARIOstar Plate Reader (BMG Labtech). Samples were prepared in 50 mM KPi buffer, pH 7.0 with final DMSO concentration at 1% (v/v). Compounds were incubated with 2 nM AmpC β-lactamase (AmpC) or Malate dehydrogenase (MDH) for 5 min. AmpC reactions were initiated by the addition of 50 μM CENTA chromogenic substrate (219475, Calbiochem). […] MDH reactions were initiated by the addition of 200 μM nicotinamide adenine dinucleotide (NADH) (54839, Sigma Aldrich) and 200 μM oxaloacetic acid (324427, Sigma Aldrich). The change in absorbance was monitored at 340 nm for 60 sec. Initial rates were divided by the DMSO control rate to determine % enzyme activity. […]. Data was analyzed using GraphPad Prism 9.1."}}, "note": "“And” between values parts separate entries of the source, which are not always exact repeats. Equal values may be shown once. Read-outs that look alike come from different tables or passages of the source."}
{"smiles": "COC(=O)C(NC(=O)c1cc(C)n(-c2cccc(F)c2)n1)c1cccs1", "note": "(centres unmarked) [‘51486]", "values": [{"measurement": "GoB hCB1", "setting": "[1]; Log [Compound] (M) -7.14267", "value": 8.064}, {"measurement": "Gi1 hCB1", "setting": "[1]; Log [Compound] (M) -7.55284", "value": 0.7982}, {"measurement": "GoB hCB1", "setting": "[1]; Log [Compound] (M) -7.55284", "value": 4.971}, {"measurement": "Gi1 hCB1", "setting": "[1]; Log [Compound] (M) -8", "value": -0.466}, {"measurement": "GoB hCB1", "setting": "[1]; Log [Compound] (M) -8", "value": 0.09744}, {"measurement": "Gi1 hCB1", "setting": "[1]; Log [Compound] (M) -8.22186", "value": 0.05819}, {"measurement": "GoB hCB1", "setting": "[1]; Log [Compound] (M) -8.22186", "value": -3.517}, {"measurement": "Gi1 hCB1", "setting": "[1]; Log [Compound] (M) -8.39794", "value": 0.459}, {"measurement": "GoB hCB1", "setting": "[1]; Log [Compound] (M) -8.39794", "value": -0.9816}, {"measurement": "Gi1 hCB1", "setting": "[1]; Log [Compound] (M) -8.68787", "value": -0.3118}, {"measurement": "GoB hCB1", "setting": "[1]; Log [Compound] (M) -8.68787", "value": -2.33}, {"measurement": "Gi1 hCB1", "setting": "[1]; Log [Compound] (M) -9.15521", "value": 0.7365}, {"measurement": "GoB hCB1", "setting": "[1]; Log [Compound] (M) -9.15521", "value": -2.906}, {"measurement": "Gi1 hCB1", "setting": "[1]; Log [Compound] (M) -9.61989", "value": 0.5515}, {"measurement": "GoB hCB1", "setting": "[1]; Log [Compound] (M) -9.61989", "value": -0.9276}, {"measurement": "Gi1 hCB1", "setting": "[1]; Log [Compound] (M) -10.0969", "value": 1.1836}, {"measurement": "GoB hCB1", "setting": "[1]; Log [Compound] (M) -10.0969", "value": -3.176}, {"measurement": "Gi1 hCB1", "setting": "[1]; Log [Compound] (M) -10.5529", "value": 0.2124}, {"measurement": "GoB hCB1", "setting": "[1]; Log [Compound] (M) -10.5529", "value": -1.989}, {"measurement": "Gi1 hCB1", "setting": "[1]; Log [Compound] (M) -11.0177", "value": 0.3974}, {"measurement": "GoB hCB1", "setting": "[1]; Log [Compound] (M) -11.0177", "value": -1.521}, {"measurement": "Gi1 hCB1", "setting": "[1]; Log [Compound] (M) -11.4949", "value": 0.1507}, {"measurement": "GoB hCB1", "setting": "[1]; Log [Compound] (M) -11.4949", "value": -1.827}, {"measurement": "Gi1 hCB1", "setting": "[1]; Log [Compound] (M) -11.9208", "value": -0.03431}, {"measurement": "GoB hCB1", "setting": "[1]; Log [Compound] (M) -11.9208", "value": 0.2953}, {"measurement": "Gi1 hCB1", "setting": "[1]; Log [Compound] (M) -12.3979", "value": -0.06514}, {"measurement": "GoB hCB1", "setting": "[1]; Log [Compound] (M) -12.3979", "value": -1.179}, {"measurement": "Gi1 hCB1", "setting": "[1]; Log [Compound] (M) -12.8861", "value": -0.466}, {"measurement": "GoB hCB1", "setting": "[1]; Log [Compound] (M) -12.8861", "value": -2.798}, {"measurement": "Gi1 hCB1", "setting": "[1]; Log [Compound] (M) -13", "value": "-0.8976 and -0.03431"}, {"measurement": "GoB hCB1", "setting": "[1]; Log [Compound] (M) -13", "value": "-1.143 and -0.8017"}, {"measurement": "pEC50 [95% CI]", "setting": "[1]; hCB1 Gi1", "value": "6.1 [6.0 – 6.1]"}, {"measurement": "pEC50 [95% CI]", "setting": "[1]; hCB1 GoB", "value": "6.2 [6.1 – 6.2]"}, {"measurement": "pEC50 [95% CI]", "setting": "[1]; hCB1 Gz", "value": "6.0 [5.5 – 6.4]"}, {"measurement": "EC50", "setting": "[1]; hCB1 Gi1", "value": 849, "unit": "nM"}, {"measurement": "EC50", "setting": "[1]; hCB1 GoB", "value": 711, "unit": "nM"}, {"measurement": "EC50", "setting": "[1]; hCB1 Gz", "value": 1120, "unit": "nM"}, {"measurement": "Emax", "setting": "[1]; read-out: Emax [95% CI], hCB1 Gi1", "value": 73, "unit": "%"}, {"measurement": "Emax", "setting": "[1]; read-out: Emax [95% CI], hCB1 GoB", "value": 74, "unit": "%"}, {"measurement": "Emax", "setting": "[1]; read-out: Emax [95% CI], hCB1 Gz", "value": 130, "unit": "%"}, {"measurement": "Ki", "setting": "[2]", "value": 794, "unit": "nM"}, {"measurement": "LLE (lipophilic ligand efficiency)", "setting": "[2]; LLE = pIC50 − clogP", "value": 3.1}, {"measurement": "binding free energy ΔG", "setting": "[2]; from measured Ki", "value": 8.4, "unit": "kcal/mol"}, {"measurement": "LE (ligand efficiency)", "setting": "[2]; from rCB1 affinity", "value": 0.32}, {"measurement": "radioligand binding remaining, competition curve (Figure2e), replicate values", "setting": "[2]; log[drug] -3.643", "value": "5.353 and 8.4728 and 6.119"}, {"measurement": "radioligand binding remaining, competition curve (Figure2e), replicate values", "setting": "[2]; log[drug] -4.35655", "value": "7.365 and 2.197 and 0.3487"}, {"measurement": "radioligand binding remaining, competition curve (Figure2e), replicate values", "setting": "[2]; log[drug] -5.07", "value": "21.0991 and 15.6904 and 16.8933"}, {"measurement": "radioligand binding remaining, competition curve (Figure2e), replicate values", "setting": "[2]; log[drug] -5.783", "value": "52.9233 and 50.4184 and 37.5523"}, {"measurement": "radioligand binding remaining, competition curve (Figure2e), replicate values", "setting": "[2]; log[drug] -6.496", "value": "81.1314 and 84.728 and 72.9079"}, {"measurement": "radioligand binding remaining, competition curve (Figure2e), replicate values", "setting": "[2]; log[drug] -7.21", "value": "91.0402 and 102.441 and 95.6067"}, {"measurement": "radioligand binding remaining, competition curve (Figure2e), replicate values", "setting": "[2]; log[drug] -7.923", "value": "92.6538 and 100.244 and 104.603"}, {"measurement": "radioligand binding remaining, competition curve (Figure2e), replicate values", "setting": "[2]; log[drug] -8.636", "value": "97.1716 and 91.2657"}, {"measurement": "pKi [95% CI]", "setting": "[2]; rCB1", "value": "6.14 [6.01 –6.26]"}, {"measurement": "% 1H-CP-55,940 displacement (mean) from single point screen", "setting": "[3]; 10 µM, 1 µM or 300 nM by cell colour (not visible)", "value": 90.60, "unit": "%"}, {"measurement": "rep1_displacement", "setting": "[3]; Figure 1c source data, replicate 1", "value": 90.6}, {"measurement": "AMPC activity (DMSO = 100), replicate means", "setting": "[4]", "value": "133.645 and 104.886 and 117.294"}]}
